Here are results for 54 molecules from patent publication US10464926B2, “Heterobicyclic compounds and their use for the treatment of tuberculosis” (OTSUKA PHARMACEUTICAL CO., LTD., priority 2014, dated 2019).

Each structure is given as a SMILES string.

The molecule `O=C1CCc2c(OCC3(O)CCN(c4ccc(OCc5ccccc5)cc4F)CC3)ccc(F)c2N1` had a melting point of 193 °C. Then `CCOCc1ccc(N2CCC(O)(COc3ccc(F)c4c3CCC(=O)N4)CC2)c(F)c1`, with 154.2 to 154.5 °C; and `O=C1CCc2ccc(OCC3(O)CCN(c4ccc(Cl)cc4F)CC3)cc2N1`, with 207.8 to 208.7 °C. Then `O=C1CCc2cc(OCC3(O)CCN(c4ccc(Cl)cc4F)CC3)ccc2N1`, with 219.1 to 220 °C; and `O=c1ccc2c(OCC3(O)CCN(c4ccc(Cl)cc4F)CC3)ccc(F)c2[nH]1`, with 255 to 256 °C. The value for `O=C1CCc2c(OCC3(O)CCN(c4ncc(C(F)(F)F)cc4Cl)CC3)ccc(F)c2N1` was 172.5 to 172.7 °C; that for `O=C1CCc2c(OCC3(O)CCN(c4cc(OCCF)c(Cl)cc4F)CC3)ccc(Cl)c2N1` was 223 to 223.3 °C. Regarding `O=C1CCc2c(OCC3(O)CCN(c4cc(OCC(F)(F)F)c(Cl)cc4F)CC3)ccc(F)c2N1`, the melting point was in the range of 200.6 to 201 °C. Then `O=C1CCc2c(OCC3(O)CCN(c4c(F)cc(OC(F)F)cc4F)CC3)ccc(F)c2N1`, with 172.6 to 172.7 °C; and `O=C1CCc2c(OCC3(O)CCN(c4c(F)cc(OC(F)F)cc4F)CC3)ccc(Cl)c2N1`, with 143.6 to 143.7 °C.

As for `COc1cc(N2CCC(O)(COc3ccc(F)c4c3CCC(=O)N4)CC2)c(F)cc1Cl`, the melting point lay within 232.4 to 232.5 °C.

Molecule `O=C1CCc2c(OCC3(O)CCN(c4ncc(Br)cc4F)CC3)ccc(F)c2N1` had a melting point of 197.4 to 203.9 °C. `O=C1CCc2c(OCC3(O)CCN(c4cc5c(cc4F)OC(F)(F)O5)CC3)ccc(Cl)c2N1` yielded a melting point of 213.4 to 213.5 °C. As to `O=C1CCc2c(OCC3(O)CCN(c4ccc(Cl)cn4)CC3)ccc(F)c2N1`, the melting point was in the range of 192 to 192.3 °C. Then `CCOc1cc(N2CCC(O)(COc3ccc(Cl)c4c3CCC(=O)N4)CC2)c(F)cc1F`, with 182.1 to 182.4 °C; and `COc1cc(N2CCC(O)(COc3ccc(Cl)c4c3CCC(=O)N4)CC2)c(F)cc1F`, with 191.4 to 191.7 °C. Molecule `O=C1CCc2c(OCC3(O)CCN(c4c(F)cc(Br)cc4F)CC3)ccc(F)c2N1` returned a melting point of 217.7 to 217.9 °C. The value for `O=C1CCc2c(OCC3(O)CCN(c4cc(CCOc5ccc(F)cc5)c(Cl)cc4F)CC3)ccc(F)c2N1` was 156 to 156.1 °C; that for `CCCc1cc(N2CCC(O)(COc3ccc(F)c4c3CCC(=O)N4)CC2)c(F)cc1F` was 184.7 to 184.8 °C. Then `O=C1CCc2c(OCC3(O)CCN(c4cc5c(cc4F)OC(F)(F)O5)CC3)cc(F)c(F)c2N1`, with 258.9 to 259 °C (dec.). Then `O=C1CCc2c(OCC3(O)CCN(c4c(F)cc(Br)cc4F)CC3)cc(F)c(F)c2N1`, with 233.1 to 233.2 °C; and `O=C1CCc2c(OCC3(O)CCN(c4ccc5c(c4)OC(F)(F)O5)CC3)ccc(F)c2N1`, with 198.4 to 198.5 °C. Molecule `O=C1CCc2c(OC[C@]3(O)CCN(c4c(F)cc(Cl)cc4F)C[C@H]3O)cc(F)c(F)c2N1` came in with a melting point of 199 to 201 °C.

Consider `O=C1CCc2c(OC[C@]3(O)CCN(c4ccc(F)cc4Cl)C[C@H]3O)cc(F)c(Cl)c2N1`, for which the melting point lay within 175.7 to 177 °C. For the molecule `O=C1CCc2c(OC[C@]3(O)CCN(c4cc(F)c(Cl)cc4F)C[C@H]3O)ccc(F)c2N1`, the melting point was in the range of 199 to 199.7 °C. The value for `O=C1CCc2c(OC[C@]3(O)CCN(c4ccc(F)cc4Cl)C[C@H]3O)cc(F)c(F)c2N1` was 192.2 to 193.2 °C. Then `O=C1CCc2c(OC[C@]3(O)CCN(c4cc(Cl)c(F)cc4Cl)C[C@H]3O)ccc(Cl)c2N1`, with 237.7 to 238.6 °C. The value for `O=C1CCc2c(OC[C@]3(O)CCN(c4cc(F)c(Cl)cc4Cl)C[C@H]3O)ccc(Cl)c2N1` was 180.2 to 180.6 °C. In the case of `O=C1CCc2c(OC[C@]3(O)CCN(c4ccc(OC(F)(F)F)cc4F)C[C@H]3O)ccc(F)c2N1`, the melting point was in the range of 161.6 to 161.9 °C. In turn, `O=C1CCc2c(OC[C@]3(O)CCN(c4ccc(OC(F)(F)F)cc4)C[C@H]3O)ccc(F)c2N1` gave a melting point of 196 to 197.1 °C. Regarding `O=C1CCc2c(OC[C@]3(O)CCN(c4nc5ccc(Cl)cc5o4)C[C@H]3O)ccc(F)c2N1`, the melting point lay in the range of 219 to 220 °C. On to `CCCCOc1cc(F)c(N2CC[C@@](O)(COc3ccc(F)c4c3CCC(=O)N4)[C@H](O)C2)c(F)c1`, for which the melting point is 185.8 to 186.2 °C. Then `O=C1CCc2c(OC[C@@]3(O)CCN(c4ccc(Br)cc4F)C[C@H]3O)ccc(F)c2N1`, with 194.7 to 194.8 °C; and `O=C1CCc2c(NCC3(O)CCN(c4ccc(F)cc4Cl)CC3)ccc(F)c2N1`, with 214 to 215 °C; and `O=C1CCc2c(NCC3(O)CCN(c4ccc(Cl)cc4F)CC3)ccc(F)c2N1`, with 225 to 226 °C.

On to `CN(CC1(O)CCN(c2ccc(Cl)cc2Cl)CC1)c1ccc(F)c2c1CCC(=O)N2`, for which the melting point lay in the range of 156 to 157 °C. In turn, `O=C1CCc2c(OCC3(C(=O)O)CCN(c4ncc(Cl)cc4Cl)CC3)ccc(F)c2N1` yielded a melting point of 276 to 277 °C.

Turning to `COC(=O)NC1(COc2ccc(F)c3c2CCC(=O)N3)CCN(c2ncc(Cl)cc2Cl)CC1`, the melting point was 183 °C. In the case of `CC(=O)NC1(COc2ccc(F)c3c2CCC(=O)N3)CCN(c2ncc(F)cc2C#N)CC1`, the melting point was in the range of 237.8 to 238.2 °C. The value for `O=C1CCc2c(OCC3(O)CCN(c4ccc(F)cc4Cl)CC3)ccc(F)c2N1` was 208 °C. With `O=C1CCc2c(OCC3(O)CCN(c4ccc(OC(F)(F)F)cc4)CC3)ccc(F)c2N1`, the melting point was determined as 200.7 °C. On to `O=C1CCc2c(OCC3(O)CCN(c4cccc(Cl)c4)CC3)ccc(F)c2N1`, for which the melting point lay in the range of 169 to 170 °C.

As for `O=C1CCc2c(OCC3(O)CCN(c4cccc(Cl)c4Cl)CC3)ccc(F)c2N1`, the melting point is 228.7 °C. Then `O=C1CCc2c(OCC3(O)CCN(c4c(F)cc(Cl)cc4F)CC3)ccc(F)c2N1`, with 225.5 to 225.6 °C; and `O=C1CCc2c(OCC3(O)CCN(c4ccc(Cl)cc4C(F)(F)F)CC3)ccc(F)c2N1`, with 211.3 to 211.5 °C; and `O=C1CCc2c(OCC3(O)CCN(c4ccccc4OC(F)(F)F)CC3)ccc(F)c2N1`, with 168 °C. On to `CC(C)c1cccc(N2CCC(O)(COc3ccc(F)c4c3CCC(=O)N4)CC2)c1`, for which the melting point was 131.1 to 131.3 °C. `N#Cc1cccc(N2CCC(O)(COc3ccc(F)c4c3CCC(=O)N4)CC2)c1` came in with a melting point of 175 to 177 °C. The value for `O=C1CCc2c(OCC3(O)CCN(c4cccc(C(F)(F)F)c4)CC3)ccc(F)c2N1` was 159.4 to 159.5 °C.

Consider `O=C1CCc2c(OCC3(O)CCN(c4ccc(Br)cc4F)CC3)ccc(F)c2N1`, for which the melting point is 204.8 to 205 °C. The value for `CCc1ccc(N2CCC(O)(COc3ccc(F)c4c3CCC(=O)N4)CC2)c(Cl)c1` was 167.8 to 168 °C; that for `CCCCOc1ccc(N2CCC(O)(COc3ccc(F)c4c3CCC(=O)N4)CC2)c(F)c1` was 193.2 to 193.5 °C; that for `O=C1CCc2c(OCC3(O)CCN(c4c(F)cc(F)cc4Cl)CC3)ccc(F)c2N1` was 239.3 to 239.6 °C. Then `O=C1CCc2c(OCC3(O)CCN(c4ccc(OC(F)(F)F)cc4F)CC3)ccc(F)c2N1`, with 174.2 to 174.3 °C.
